Reference: PMC12003248, “ERCC6L2 mitigates replication stress and promotes centromere stability” (Cell Reports, 2023)

How the values were obtained:
Type in all cases: cell-based, human
[1] = tested on: control and ERCC6L2^−/− U2OS cells; assay: Clonogenic survival assay; details: 11 days, 3 independent experiments, ERCC6L2^−/− vs control U2OS
Protocol: Cells were seeded in 6-well plates (approximately 700 cells/well) and either left untreated or treated with the indicated concentrations of genotoxic agents. Cells were then grown for 11 days to allow colony formation. Colonies were stained with 5 mg/ml crystal violet (Sigma-Aldrich) solution in 25% methanol for 30 min. Pictures were taken using a Nikon D3200 camera and images were analyzed using FIJI software. FIJI’s ‘Analyze Particles’ function was used to quantify numbers of colonies. Survival was calculated relative to untreated cells. Each experiment was performed in technical triplicates, and data shown represent combined data from at least three independent experiments.

CENP-B = CENP-B intensities by QIBC after genotoxic stress; details: 1 h, 5 h recovery, N(cells)>30,000
pRPA32 = assay: pRPA levels (ssDNA marker); details: 50 µg/ml phleomycin for 12 h; vs control cells
Protocol: For quantitative analysis of pRPA, RAD51, γH2AX, and EdU foci, non-overlapping images were acquired using a 20x objective lens. Image analysis was performed using CellProfiler.[98] For quantification of TRF1-and CENP-C-positive micronuclei, random non-overlapping images were acquired, and Z-stacks were further collected for each micronucleus to examine the presence of TRF1 and CENP-C foci. […]
(§1) 0.8 ControlERCC6L2ControlERCC6L2
(§2) 0.4 28 kDa short exposure […]
(§3) Figure S12. DNA damage-induced changes in control and ERCC6L2 -/- cells. Related to Figure 6.
(§4) (A) Box and whisker plots measuring average pRPA intensi?es in control and ERCC6L2-/- cells. Cells were either untreated, or exposed to 50 µg /ml phleomycin for 12 h, before ﬁxa?on and staining. N(images)>180, N(cells)>28,000. (B) Representa?ve images of phleomycin treated cells used for quan?ﬁca?ons in A. Shown are expressions of indicated proteins, with zoomed images of cells in coloured frames.
(§5) (C) Analysis of pRPA levels by western blot. Treatments were as in A. (D) Box and whisker plots measuring average pKAP1 intensi?es in control and ERCC6L2-/- cells. Cells were either untreated, or exposed to 50 µg /ml phleomycin for 12 h, before ﬁxa?on and staining.
N(images)>180, N(cells)>28,000. […]

[2] = tested on: control and ERCC6L2^−/− U2OS cells; assay: Micronuclei formation; details: cells grown with damaging agents for 2 days; ERCC6L2^−/− vs control U2OS
Description: absence or presence of damaging agents for 2 days. CENPC and 53BP1 were used as centromeric and DSB markers, respec?vely. N(images) >140, N(cells)>50,000. (B) Quan?ﬁca?on of micronuclei subtypes in control and ERCC6L2-/- U2OS cells, as indicated. 53BP1 or γH2AX were used as DSB markers; CENP-C was used as a centromere marker; Telomeric repeat-binding factor 2-interac?ng protein 1 (RAP1) was used as a telomere marker. N(images)>400, N(cells)>30,000.

pKAP1 (KAP1 S824) = assay: pKAP1 levels; details: 50 µg/ml phleomycin for 12 h; vs control cells
Protocol: as §1, §2, §3, §4, §5
N(images)>180, N(cells)>28,000. (E) Representa?ve images of phleomycin treated cells used for quan?ﬁca?ons in D. Shown are expressions of indicated proteins, with zoomed images of cells in coloured frames. (F) Analysis of pKAP1 levels by western blot. Treatments were as in D. (G) Box and whisker plots measuring KAP1 foci in control and ERCC6L2-/- cells. Cells were either untreated, or exposed to 50 µg /ml phleomycin for 12 h, before ﬁxa?on and staining. N(images)>180, N(cells)>28,000. B, E, H: Scale bar: 10 µm. A, D, G: Sta?s?cs […]

[3] = tested on: control and ERCC6L2^−/− cells; assay: Nascent DNA degradation assay (DNA combing); details: 3 mM hydroxyurea, 4 h; IdU/CldU track ratio; N(tracks)>700
Protocol: Control and ERCC6L2^−/− cells were labeled with 100 μM CldU, followed by 100 μM IdU in the presence of 10 μM Polα inhibitor CD437. Each pulse lasted 40 min. Cells were then trypsinised and embedded in agarose plugs using a kit from Genomic Vision according to the manufacturer’s instructions. DNA was extracted and purified from the agarose plugs, and stretched onto silanised coverslips with the molecular combing system (Genomic Vision). CldU was detected with rat anti-BrdU antibody (Abcam, BU1/75) and Alexa Fluor 594 conjugated secondary antibody (Thermo Fisher Scientific). ldU was detected with mouse anti-BrdU antibody (Becton Dickinson, BD44) and Alexa Fluor 488 conjugated secondary antibody (Thermo Fisher Scientific). […] More than 1500 tracks were analyzed per condition.
For nascent DNA degradation assay, cells were sequentially incubated with 100 μM CldU and 100 μM IdU. […] More than 700 tracks were analyzed per condition. […]
Error bars represent standard errors from 3 independent experiments. […] U2OS cells were transfected with YFP-ERCC6L2 constructs and monitored by live cell imaging following laser induced DNA damage. […]
(F) Valida?on of siRNA against CTC1 and C20orf196. […] For BRCA1, RIF1, REV7, 53BP1, BLM and CtIP, cells were transfected as in F, and endogenous proteins were detected by speciﬁc an?bodies. […] Expression was detected by an?-FLAG or an?-GFP an?bodies, as indicated. […]

phleomycin
sensitivity of ERCC6L2-deficient cells [1]: increased sensitivity
CENP-B intensities after 25 µg/ml phleomycin (CENP-B): not aﬀected by DNA damage
pRPA levels in treated ERCC6L2^−/− cells (pRPA32): increased levels of pRPA
micronuclei formation in ERCC6L2-deficient cells [2]: increased frequency of micronuclei formation
pKAP1 levels in treated ERCC6L2^−/− cells (pKAP1 (KAP1 S824)): decreased levels of pKAP1

NC(=O)NO [hydroxyurea]
nascent DNA protection, control vs ERCC6L2^−/− [3]: did not observe significant differences in nascent DNA protection
